In article PMC11940309, “Endocrine-Disrupting Activities of Flavones on Steroid Receptors: Structural Requirements and Synthesis of Novel Flavone with Improved Estrogenic Activity” (Biomedicines, 2025):
Values joined by “and” are separate entries in the source; they are usually repeats but may differ in a detail not shown here. Equal entries are not always repeated. Where two headings read alike, the source gives them in different places.

What was measured:
[1] = molecular target: T1, progesterone receptor (PR) (Homo sapiens, UniProt P06401); assay: PR-mediated induction of transcription by R5020 in T47D K5pLuc cells (luciferase reporter and endogenous alkaline phosphatase); format: cell-based; settings: T47D, R5020 1.0 nM
T1 sequence (P06401 679-933 limits assumed): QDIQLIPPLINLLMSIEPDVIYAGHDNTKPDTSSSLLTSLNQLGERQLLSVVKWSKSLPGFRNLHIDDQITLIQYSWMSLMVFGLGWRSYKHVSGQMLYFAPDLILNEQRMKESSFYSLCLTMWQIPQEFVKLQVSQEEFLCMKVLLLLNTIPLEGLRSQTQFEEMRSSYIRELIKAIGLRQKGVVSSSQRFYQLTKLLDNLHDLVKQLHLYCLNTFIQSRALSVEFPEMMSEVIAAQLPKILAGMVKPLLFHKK
Source text: (§1) The engineered T47D breast cancer cell lines employed for the assessment of flavonoid activity on glucocorticoid receptor (GR) and progesterone receptor (PR) signaling permitted the facile quantitation transcription of both an endogenous gene and a stably integrated reporter gene. […] The T47D K5pLuc cell line responds to progestins via induction of a stably integrated cytokeratin 5-luciferase reporter gene. […] For assessment of the effect of the test compounds on androgen receptor (AR) signaling, we used the HeLa13 cell line engineered to stably express human AR and a PSA-luciferase reporter gene containing a 4× multimerized PSA upstream enhancer ARE1 linked to the E4 TATA box and luciferase gene.
Experiments testing the effect of flavonoids on progesterone receptor-mediated transcription employed T47D K5pluc cells. The protocol was the same as that for T47D (A1-2) cells except the medium was Dulbecco’s Modified Eagle’s Medium supplemented with 10% FBS, insulin (10 nM), puromycin 200 ng/mL, nonessential amino acids, penicillin (100 U/mL), and streptomycin (100 μg/mL). When treated with hormone, the synthetic progestin, R5020, was used at 1.0 nM. Hormone treatment was for 20 h at which time cells were harvested for assay of alkaline phosphatase and luciferase.
(§2) For all cell lines, cell harvesting and the luminescence assay for alkaline phosphatase and/or luciferase were performed as previously described in detail. Each condition was performed in quadruplicate. […] Percent inhibition is 100 minus the percent induction.

[2] = molecular target: T2, glucocorticoid receptor (GR) (Rattus norvegicus, UniProt P06536); assay: GR-mediated induction of transcription by dexamethasone in T47D (A1-2) cells (luciferase reporter and endogenous alkaline phosphatase); format: cell-based, human; settings: T47D, dexamethasone 1.0 nM, read-out: % Inhibition of GR Induction
T2 construct: host or cells: T47D (A1-2)
T2 sequence (P06536 1-795): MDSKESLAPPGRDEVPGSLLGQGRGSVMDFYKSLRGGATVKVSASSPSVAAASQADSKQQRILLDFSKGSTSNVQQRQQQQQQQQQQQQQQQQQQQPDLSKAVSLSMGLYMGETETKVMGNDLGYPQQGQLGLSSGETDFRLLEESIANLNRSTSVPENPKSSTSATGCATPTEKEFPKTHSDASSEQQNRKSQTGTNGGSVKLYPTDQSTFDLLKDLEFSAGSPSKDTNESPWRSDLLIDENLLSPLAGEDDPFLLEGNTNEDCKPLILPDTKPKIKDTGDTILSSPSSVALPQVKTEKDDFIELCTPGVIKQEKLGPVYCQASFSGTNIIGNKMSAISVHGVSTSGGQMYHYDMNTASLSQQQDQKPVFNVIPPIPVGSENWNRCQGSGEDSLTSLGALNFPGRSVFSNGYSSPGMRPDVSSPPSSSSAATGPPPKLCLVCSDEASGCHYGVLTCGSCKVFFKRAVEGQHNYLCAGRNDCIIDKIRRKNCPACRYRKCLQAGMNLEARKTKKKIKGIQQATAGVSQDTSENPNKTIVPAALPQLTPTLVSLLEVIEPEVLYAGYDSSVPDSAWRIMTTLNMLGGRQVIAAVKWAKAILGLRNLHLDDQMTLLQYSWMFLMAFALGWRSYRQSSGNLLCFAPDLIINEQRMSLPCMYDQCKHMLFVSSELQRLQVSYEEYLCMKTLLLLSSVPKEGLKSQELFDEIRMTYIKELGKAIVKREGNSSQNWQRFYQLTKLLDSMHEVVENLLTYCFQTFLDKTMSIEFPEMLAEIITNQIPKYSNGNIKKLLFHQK
Source text: as §1
For assessment of the effect of flavones on glucocorticoid receptors, T47D (A1-2) cells were maintained in Minimal Essential Medium, 10% Fetal Bovine Serum (FBS), 0.2 mg/mL G418, penicillin (100 U/mL), and streptomycin (100 μg/mL). For experiments, medium was removed, and cultures rinsed with Phosphate-Buffered Saline (PBS) + 1.0 mM EDTA (PBSE), detached with trypsin, pelleted, and resuspended in medium to a concentration of 500,000 cells/mL. Aliquots of cell suspension, 100 microliters/well, were transferred into a 96-well, white, flat-bottomed plate and allowed to attach for 24 h. The following day, each well was treated with a 50 microliter aliquot of a test compound diluted in medium. Controls received medium containing DMSO diluted in the same way. For hormone treatment, dexamethasone was diluted in medium and added as 50 microliter aliquots so that the final volume in each well was 200 microliters. The final concentration of dexamethasone was 1.0 nM. Controls received medium without hormone. Hormone treatment was for 20 h at which time cells were harvested for assay of alkaline phosphatase and luciferase.
as §2

estrogen receptor (ER) = assay: ER-mediated luciferase reporter induction in T47D KBluc cells; format: cell-based, human; settings: for % ER Induction: relative to 1nM estradiol
Experimental: Experiments testing the effect of flavonoids on estrogen receptor-mediated transcription employed T47D KBluc cells. These cells were maintained in RPMI medium with 10% FBS, penicillin (100 U/mL), and streptomycin (100 μg/mL). For reporter gene experiments, cells were detached as above and replated at 50% confluency in phenol red-free RPMI media with 10% charcoal-stripped FBS and antibiotics (day one). All subsequent steps used phenol red-free medium and trypsin. On day three, the medium was replaced with fresh medium. On day five, cells were washed with PBSE, detached, resuspended, diluted, and replated in the phenol red-free RPMI with charcoal-stripped serum (50,000 cells per well as above).
as §2

human AR = molecular target: T3, human AR (Homo sapiens, UniProt P10275); assay: AR-mediated induction of PSA-luciferase reporter by R1881 in HeLa13 cells; format: cell-based; settings: for inhibition at 1 µM / inhibition at 4 µM: read-out: % Inhibition of AR-Mediated Gene Induction
T3 construct: expressed in transfected cells; host or cells: HeLa13 (HeLa 13)
T3 sequence (P10275 1-920): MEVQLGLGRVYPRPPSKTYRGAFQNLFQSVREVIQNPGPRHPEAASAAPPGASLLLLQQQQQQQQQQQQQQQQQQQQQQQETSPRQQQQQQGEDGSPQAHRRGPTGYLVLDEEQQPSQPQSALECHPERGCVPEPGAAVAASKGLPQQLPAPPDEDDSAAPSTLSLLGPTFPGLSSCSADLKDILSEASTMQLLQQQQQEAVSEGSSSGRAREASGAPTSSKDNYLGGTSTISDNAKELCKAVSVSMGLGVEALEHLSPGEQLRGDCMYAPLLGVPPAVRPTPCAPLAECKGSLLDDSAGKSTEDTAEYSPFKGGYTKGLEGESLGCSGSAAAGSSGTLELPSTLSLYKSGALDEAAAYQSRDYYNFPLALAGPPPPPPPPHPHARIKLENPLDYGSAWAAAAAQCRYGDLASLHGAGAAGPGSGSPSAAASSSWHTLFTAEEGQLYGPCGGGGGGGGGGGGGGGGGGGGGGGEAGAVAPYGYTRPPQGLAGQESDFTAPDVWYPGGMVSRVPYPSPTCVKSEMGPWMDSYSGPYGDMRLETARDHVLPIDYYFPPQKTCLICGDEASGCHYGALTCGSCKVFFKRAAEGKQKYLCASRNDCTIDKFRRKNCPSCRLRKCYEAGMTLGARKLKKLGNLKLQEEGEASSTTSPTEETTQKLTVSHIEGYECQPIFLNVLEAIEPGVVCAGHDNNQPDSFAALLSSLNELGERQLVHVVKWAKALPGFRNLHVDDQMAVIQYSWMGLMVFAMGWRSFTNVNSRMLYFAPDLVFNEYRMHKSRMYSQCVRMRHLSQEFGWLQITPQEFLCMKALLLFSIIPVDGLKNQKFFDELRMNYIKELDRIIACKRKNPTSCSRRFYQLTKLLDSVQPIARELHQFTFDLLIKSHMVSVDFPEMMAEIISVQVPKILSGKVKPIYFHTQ
Source text: as §1
Experiments testing the effect of flavonoid on androgen receptor-mediated transcription employed HeLa 13 cells maintained in MEM medium supplemented with 10% FBS, 0.5 mg/mL G418, 0.05 mg/mL Hygromycin B, […], and streptomycin (100 μg/mL). For reporter gene experiments, cells were replated at a 1:5 dilution in MEM medium with 5% charcoal-stripped FBS and the antibiotics mentioned above. The medium was changed the next day. After 48 h, the cells were washed with PBSE, detached with phenol red-free trypsin, pelleted, resuspended and plated in 96 well plates as above. Hormone and flavonoid treatments were performed as described above with the HeLa 13 medium and charcoal-stripped FBS. When treated with hormone, the synthetic androgen, R1881, was used at 1.0 nM. Hormone treatment was for 20 h at which time cells were harvested for assay of luciferase.
as §2

Compound	% ER Induction (estrogen receptor (ER); 1 µM) [%]	% ER Induction (estrogen receptor (ER); 4 µM) [%]	inhibition at 1 µM (human AR; 1 µM, R1881 1.0 nM) [%]	inhibition at 4 µM (human AR; 4 µM, R1881 1.0 nM) [%]	other results
O=c1cc(-c2ccccc2)oc2cccc(O)c12 [5-hydroxyflavone]	0	4	–	–	inhibition at 4 µM ([1]; AP (alkaline phosphatase)): 26%; inhibition at 4 µM ([1]; LUC (luciferase)): -23%; inhibition at 8 µM ([1]; AP (alkaline phosphatase)): 61%; inhibition at 8 µM ([1]; LUC (luciferase)): 45%; inhibition at 4 µM ([2]; AP (alkaline phosphatase)): 38%; inhibition at 4 µM ([2]; LUC (luciferase)): -9%; inhibition at 8 µM ([2]; AP (alkaline phosphatase)): 12%; inhibition at 8 µM ([2]; LUC (luciferase)): -30%
C[C@]12CC[C@@H]3c4ccc(O)cc4CC[C@H]3[C@@H]1CC[C@@H]2O [17β-estradiol]	–	–	–	–	potency relative to the 6,4′-dihydroxyflavones (estrogen receptor (ER); in the assays used here): over 1000 fold
COc1ccc(-c2oc3ccc(OC)cc3c(=O)c2O)cc1 [3-hydroxy, 6,4′-dimethoxyflavone]	2	3	-17	41	–
COc1ccc(-c2cc(=O)c3c(OC)cccc3o2)cc1 [5,4′-methoxyflavone]	1	31	–	–	% Inhibition of AR-Mediated Gene Induction (human AR; 1 µM, R1881 1.0 nM): 4%; % Inhibition of AR-Mediated Gene Induction (human AR; 4 µM, R1881 1.0 nM): 53%
COc1cccc2oc(-c3ccc(O)cc3)cc(=O)c12 [5-methoxy,4′-hydroxyflavone]	−2	10	-4	34	–
O=C1CC(c2ccc(O)cc2)Oc2ccccc21 (stereo not shown) [4′-hydroxyflavanone]	12	109	–	–	inhibition at 1 µM (human AR): -8%; inhibition at 4 µM (human AR): 0%
O=c1c(O)c(-c2ccc(O)cc2)oc2ccccc12 [3,4′-dihydroxyflavone]	13	125	3	27	–
Cc1c(-c2ccc(O)cc2)oc2ccc(O)cc2c1=O [compound 8, 3-methyl 6,4′-dihydroxyflavone]	–	–	–	–	increase of EC50 relative to 6,4′-dihydroxyflavone (estrogen receptor (ER)): ten-fold or more; reporter gene activity compared with an optimal dose of estradiol (estrogen receptor (ER); 1.0 micromolar): super-inducer
COc1ccc(-c2cc(=O)c3cc(O)ccc3o2)cc1 [6-hydroxy,4′-methoxyflavone]	63	131	32	39	–
O=C1CC(c2ccccc2)Oc2ccc(O)cc21 (stereo not shown) [6-hydroxyflavanone]	15	111	-8	22	–
O=c1cc(-c2ccc(O)cc2)oc2cc(O)cc(O)c12 [5,7,4′-trihydroxyflavone]	–	–	–	–	inhibition at 4 µM ([2]; AP (alkaline phosphatase)): -19%; inhibition at 4 µM ([2]; LUC (luciferase)): 6%; inhibition at 8 µM ([2]; AP (alkaline phosphatase)): 49%; inhibition at 8 µM ([2]; LUC (luciferase)): 35%
O=c1c(O)c(-c2ccc(O)cc2)oc2cc(O)ccc12 [3,7,4′-trihydroxyflavone]	86	114	-6	39	–
O=c1c(O)c(-c2ccc(O)c(O)c2)oc2cc(O)cc(O)c12 [3,5,7,3′,4′-pentahydroxyflavone]	3	12	–	–	inhibition at 4 µM ([1]; AP (alkaline phosphatase)): 52%; inhibition at 4 µM ([1]; LUC (luciferase)): 47%; inhibition at 8 µM ([1]; AP (alkaline phosphatase)): 79%; inhibition at 8 µM ([1]; LUC (luciferase)): 78%
O=c1c(F)c(-c2ccc(O)cc2)oc2ccc(O)cc12 [compound 14, 3-fluoro, 6,4′-dihydroxyflavone]	–	–	–	–	EC50 compared to that of genistein (estrogen receptor (ER)): comparable; EC50 (estrogen receptor (ER); read-out: EC50, estrogen agonist): ~30 nM and 30 to 100 nM
O=c1c(O)c(-c2ccccc2)oc2ccc(O)cc12 [3,6-dihydroxyflavone]	55	94	35	52	–
